Values of other authors in patent publication US10376473B2, “Transdermal adhesive compositions, devices, and methods” (priority 2010, dated 2019).
Where two headings read alike, the source gives them in different places.

Details: after 2 months at 60° C.

CCN(C)C(=O)Oc1cccc([C@H](C)N(C)C)c1 [(S)—N-ethyl-3-[(1-dimethylamino)ethyl]-N-methylphenyl carbamate]
degradation products (composition with 0.1% tocopherol (antioxidant)): 1.3% | degradation products (composition without the antioxidant): 4.46%
